# Results taken from patent publication US20180339016A1 (priority 2015, published 2018).
# Like-named read-outs stand apart in the source and are kept apart here.
# Experiments:
# [1] = test system: E. coli ATCC 25922; test: Antibiotic interaction assay (Wimley), 2/3 broth microdilution: MIC alone, MIC of combination, FICI; format: cell-based; details: for MIC of combination (μM): antibiotic: concentration of labelled drug in combination with KL-L9P; for FICI of drug with KL-L9P / FICIKL-L9P / FICIantibiotic: labelled drug + KL-L9P; for FICI of drug with colistin: labelled drug + colistin; for MIC of drug with 1 μM KL-L9P / dilution of MIC relative to drug alone: with 1 μM of KL-L9P
# Protocol: Synergy was evaluated by an antibiotic interaction assay (Wimley, 2015) Using the method of Wimley (BBA, 2015, v. 1848(1), pp. 8-15), synergy between the membrane-activating peptide and an antibiotic was measured by an FICI value (FIG. 17). […] Thus, to accurately examine synergy, a ⅔ dilution method which observes MIC at denser concentration intervals is advantageous over a ½ dilution method in statistical terms. […] In the same manner, the MIC of an antibiotic or repositioning drug (second line) is measured. In the third line, the two compounds are mixed after putting half amount each, and the MIC thereof is measured.
# A broth microdilution technique (⅔ dilution) was used together with an MH broth. E. coli treated with an antibiotic and the peptide was incubated in a 37° C. incubator for 18 hours.
# (§1) To measure the synergy between the membrane-activating peptides and the repositioning drug, a 10× compound was prepared, and then serially diluted ⅔-fold with distilled water. An MH broth (900 μl) was added to and mixed with the 10× compound (100 μl), and then 200 μL of the mixture was taken and added to a 96-well plate. E. coli cultured for one day was adjusted to 0.5 MCF using MCFarland, and diluted 10-fold, and then 10 μl of the dilution was added to each well of the plate (5×10^5 CFU/mL). After addition of the bacterial cells, plate was incubated at 37° C. for 18 hours, and then the OD value at UV-Vis (600 nm) was measured. Cell viability (%)=(OD600 of sample−OD600 of negative control)/(OD600 of positive control−OD600 of negative control)×100.
# [2] = test system: Escherichia coli (ATCC 25922); details: peptide alone; peptide concentration required to inhibit growth by 20% (so in the source)
# Protocol: The N-terminus of the peptides were acetylated and the C-terminus was amidated. The kinked structure can rapidly reduce the alpha-helical content, thereby greatly reducing the toxicity of the peptide against host cells. In addition, because of the potential to show specificity for the Gram-negative bacterial membrane, Pro-mutants were prepared by site-directed mutagenesis. Using the prepared peptides, their MIC for the Gram-negative bacterium E. coli and the Gram-positive bacterium S. aureus and their hemolytic activity for host cells were examined (Table 1).
# as §1
# [3] = Escherichia coli, ATCC25922, 18 h, drug alone, <20% growth of positive control, read-out: MIC of antibiotic
# [4] = Escherichia coli, ATCC25922, 18 h, Tables 19-23, read-out: MIC (μM) against E. coli ATCC, 1 compound alone
Compound,"MIC [1, 3] [µM]",MIC of combination (μM): antibiotic [1] [µM],FICI of drug with KL-L9P [1],FICIKL-L9P [1],FICIantibiotic [1],MIC [μM] Against E. coli [2] [µM],further results
CC(C)Cc1ccc([C@@H](C)C(=O)O)cc1 [(R)-ibuprofen],12000,555.56,0.27,0.23,0.05,,
CC(C)Cc1ccc([C@H](C)C(=O)O)cc1 [(S)-ibuprofen],12000,416.67,0.23,0.20,0.03,,"MIC [1, 4]: 12000 µM; MIC (μM) against E. coli ATCC, combination of two compounds ([1]; KL-L9P + (S)-ibuprofen, concentration of labelled component): 420 µM; MIC (μM) against E. coli ATCC, combination of 3 compounds ([1]; KL-L9P + colistin + (S)-ibuprofen, concentration of labelled component): 98 µM; MIC (μM) against E. coli ATCC, combination of two compounds ([1]; colistin + (S)-ibuprofen, concentration of labelled component): 830 µM"
N[C@@H]1CONC1=O [D-cycloserine],,,,,,,synergy with KL-L9P [1]: not synergistic
CC(=O)Nc1ccc(O)cc1 [acetaminophen],,,,,,,synergy with KL-L9P [1]: not synergistic
CC(=O)Oc1ccccc1C(=O)O [aspirin],519,479.17,1.59,0.66,0.92,,synergy with KL-L9P [1]: not synergistic
CC(C)c1c(C(=O)Nc2ccccc2)c(-c2ccccc2)c(-c2ccc(F)cc2)n1CC[C@@H](O)C[C@@H](O)CC(=O)O [atorvastatin],> 500,166.67,0.60,0.38,0.22,,
COc1ccc2cc3[n+](cc2c1OC)CCc1cc2c(cc1-3)OCO2 [berberine],298,273.15,,0.53,0.92,,synergy with KL-L9P [1]: not synergistic
O=C(O)c1cn(C2CC2)c2cc(N3CCNCC3)c(F)cc2c1=O [ciprofloxacin],,,,,,,synergy with KL-L9P [1]: not synergistic
Cc1onc(-c2ccccc2Cl)c1C(=O)N[C@@H]1C(=O)N2[C@@H]1SC(C)(C)[C@@H]2C(=O)O [cloxacillin],74.1,17.78,,0.25,0.24,,"MIC [1, 4]: 70 µM; MIC (μM) against E. coli ATCC, combination of two compounds ([1]; KL-L9P + cloxacillin, concentration of labelled component): 18 µM; MIC (μM) against E. coli ATCC, combination of 3 compounds ([1]; KL-L9P + colistin + cloxacillin, concentration of labelled component): 9.4 µM; MIC (μM) against E. coli ATCC, combination of two compounds ([1]; colistin + cloxacillin, concentration of labelled component): 38 µM; FICI of drug with colistin [1]: about 1; MIC of drug with 1 μM KL-L9P [1]: 0.3 µM; dilution of MIC relative to drug alone [1]: 128 fold"
COc1cc(/C=C/C(=O)CC(=O)/C=C/c2ccc(O)c(OC)c2)ccc1O [curcumin],396,78.70,0.30,0.10,0.20,,"MIC [1, 4]: 300 µM; MIC (μM) against E. coli ATCC, combination of 3 compounds ([1]; KL-L9P + colistin + curcumin, concentration of labelled component): 20 µM; MIC (μM) against E. coli ATCC, combination of two compounds ([1]; KL-L9P + curcumin, concentration of labelled component): 79 µM; MIC (μM) against E. coli ATCC, combination of two compounds ([1]; colistin + curcumin, concentration of labelled component): 83 µM; MIC of drug with 1 μM KL-L9P [1]: 4 µM; dilution of MIC relative to drug alone [1]: about 330 fold"
CC(C)Cc1ccc(C(C)C(=O)O)cc1 (stereo not shown) [ibuprofen],,,,,,,MIC of drug with 1 μM KL-L9P [1]: 3 µM; dilution of MIC relative to drug alone [1]: about 3000 fold
CC(=O)NC[C@H]1CN(c2ccc(N3CCOCC3)c(F)c2)C(=O)O1 [linezolid],71.1,15.80,,0.18,0.22,,"lowering of MIC in combination KL-L9P/colistin/linezolid versus alone [1]: 10 fold; MIC [1, 4]: 70 µM; MIC ([1]; Escherichia coli, ATCC25922, Example 7, read-out: MIC when the three compounds were used alone): 60 µM; MIC ([1]; Escherichia coli, ATCC25922, linezolid alone, read-out: MIC of Linezolid): 83 µM; MIC (μM) against E. coli ATCC, combination of 3 compounds ([1]; KL-L9P + colistin + linezolid, concentration of labelled component): 6.7 µM; MIC (μM) against E. coli ATCC, combination of two compounds ([1]; KL-L9P + linezolid, concentration of labelled component): 16 µM; MIC (μM) against E. coli ATCC, combination of two compounds ([1]; colistin + linezolid, concentration of labelled component): 36 µM; concentration killing E. coli in combination KL-L9P/colistin/linezolid ([1]; concentration of labelled component): 6 µM; FICI of drug with colistin [1]: about 1; MIC ([1]; linezolid alone, read-out: MIC of Linezolid): 59 µM; MIC of drug with 1 μM KL-L9P [1]: 10 µM; dilution of MIC relative to drug alone [1]: about 16 fold"
CC[C@H](C)C(=O)O[C@H]1C[C@@H](C)C=C2C=C[C@H](C)[C@H](CC[C@@H]3C[C@@H](O)CC(=O)O3)[C@H]21 [lovastatin],> 500,74.07,0.24,0.14,0.10,,
O=c1c(O)c(-c2ccc(O)c(O)c2)oc2cc(O)cc(O)c12 [quercetin],7500,108.39,0.35,0.33,0.01,,
Oc1ccc(C=Cc2cc(O)cc(O)c2)cc1 [resveratrol],1770,246.91,0.25,0.11,0.14,,
CCC(C)(C)C(=O)O[C@H]1C[C@@H](C)C=C2C=C[C@H](C)[C@H](CC[C@@H]3C[C@@H](O)CC(=O)O3)[C@H]21 [simvastatin],> 500,52.47,0.18,0.11,0.07,,"MIC [1, 4]: > 500 µM; MIC ([1]; Escherichia coli, ATCC25922, simvastatin alone, read-out: MIC of simvastatin): 750 µM; MIC (μM) against E. coli ATCC, combination of 3 compounds ([1]; KL-L9P + colistin + simvastatin, concentration of labelled component): 33 µM; MIC (μM) against E. coli ATCC, combination of two compounds ([1]; KL-L9P + simvastatin, concentration of labelled component): 53 µM; MIC (μM) against E. coli ATCC, combination of two compounds ([1]; colistin + simvastatin, concentration of labelled component): 71 µM"
CN(C)[C@@H]1C(=O)C(C(N)=O)=C(O)[C@@]2(O)C(=O)C3=C(O)c4c(O)cccc4[C@@](C)(O)[C@H]3C[C@@H]12 [tetracyclin],,,,,,,synergy with KL-L9P [1]: not synergistic
KLAKLAKKPLKLAK [KLA-L9P],,,,,,> 200,
KLLKLAKKPLKLLK [KL-L6AL9P],,,,,,89,
KLLKLLKKELKLLK [KL L9E],,,,,,5,
KLLKLLKKGLKLLK [KL L9G],,,,,,1.25,
KLLKLLKKNLKLLK [KL L9N],,,,,,2.5,
KLLKLLKKQLKLLK [KL L9Q],,,,,,1.25,
KLLKLLKKSLKLLK [KL L9S],,,,,,1.25,
Mtx- KLLKLLKKPLKLLK [Mtx-KL-L9P],,,,,,5.0,
Mtx- KLLKLPKKLLKLLK [Mtx-KL-L6P],,,,,,5.0,
Mtx- LKKLLKLPKKLLKL [Mtx-LK-L8P],,,,,,5.0,
